Where two headings read alike, the source gives them in different places.
Tests used:
[1] = Pharmacokinetic study in rats (intragastric administration and intravenous injection, LC/MS/MS); format: in vivo, SD rats; conditions: rat; for Vd/F / AUC / CL/F / half-life / Cmax / MRT / Vd / clearance: both sexes, SD, plasma; for Vd/F: read-out: Apparent volume of distribution Vz/F; for AUC: read-out: Area under curve AUC; for CL/F: read-out: Clearance CL/F; for half-life: read-out: Half-life t½ (converted); for Cmax: read-out: Plasma concentration Cmax; for MRT: read-out: Residence time MRT; for Vd: read-out: Apparent volume of distribution Vz; for clearance: read-out: Clearance CL
Procedure: With rats as test animals, the plasma concentration of the compound of Example 2 and a comparative compound A (see compound (1) of Example 3 in WO2016135052A1) were determined by LC/MS/MS at different time points after intragastric administration and intravenous injection to the rats. The pharmacokinetic behavior in rats of the compound disclosed herein was studied and its pharmacokinetic profile was evaluated.
16 healthy adult SD rats (half male and half female, purchased from Vital River Laboratory Animal Technology Co., Ltd.) were evenly divided into 4 groups.
A certain amount of the compound was weighed out, and 5% of DMSO, 5% of Tween 80, and 90% of normal saline were added to give a colorless and clear solution.
Intragastric administration group: SD rats were fasted overnight, and then the compound was administered intragastrically to the rats at a dose of 2 mg/kg and a volume of 10.0 mL/kg.
Intravenous administration group: SD rats were fasted overnight, and then the compound was administered to the rats by intravenous injection at a dose of 1 mg/kg and a volume of 5.0 mL/kg.
Intragastric administration group: The compound of Example 2 and the comparative compound A were administered intragastrically to the rats, and 0.1 mL of blood was collected from the orbit before administration and 0.25 h, 0.5 h, 1.0 h, 2.0 h, 4.0 h, 6.0 h, 8.0 h, 11.0 h and 24.0 h after administration. The blood was placed in an EDTA-K2 anticoagulation tube and centrifuged at 10000 rpm for 1 min at 4° C. The plasma was separated within 1 h and stored at −20° C. before analysis. The process from blood collection to centrifugation was performed in an ice bath. Two hours after administration, feeding was resumed.
Intravenous administration group: The rats were injected intravenously with the compound of Example 2 and the comparative compound A, and the blood was collected before administration and 5 min, 15 min, 0.5 h, 1.0 h, 2.0 h, 4.0 h, 8.0 h, 11.0 h and 24.0 h after administration and treated in the same way as the blood of the intragastric administration group.
Determination of plasma concentrations in rats after intragastric administration and intravenous injection of the test compounds at different concentrations: 20 μL of rat plasma at each time point after administration was mixed with 50 μL of an internal standard solution (camptothecin, 100 ng/mL) and 200 μL of acetonitrile, and the mixture was vortexed for 5 min and centrifuged for 10 min at 3700-4000 rpm. 1.0-2.0 μL of supernatant of the plasma sample was taken for LC/MS/MS analysis.

[2] = test system: dextran sulfate sodium salt (DSS)-induced UC mice; assay: Prophylactic and therapeutic effects on DSS-induced ulcerative colitis (UC) in mice; format: in vivo, female C57BL/6 mice; conditions: for efficacy on DSS-induced UC (conclusion in words): 50 mg/kg, body weight and colon length; for body weight decreasing rate / colon length, % of that of the normal control group: DSS-induced UC mice
Procedure: In the experiment, female C57BL/6 mice from Vital River were selected to establish an ulcerative colitis (UC) model induced by dextran sulfate sodium salt (DSS), and the prophylactic and therapeutic effects of a positive compound ABX-464 (see compound 90 in WO2015001518A1) and compound 1 disclosed herein on the DSS-induced ulcerative colitis were evaluated.
Female C57BL/6 mice for experiments, purchased from Vital River Laboratory Animal Technology Co., Ltd. (production license number: SCXK (Zhejiang) 2019-0001, animal certification number: 20210401Abzz0619000795), weighing 20-22 g at the time of purchase, were bred at 5 mice/cage in an independent SPF space (in 12/12-hour light/dark cycle, at a constant temperature of 23±1° C. and a humidity of 50%-60%) and given ad libitum access to food and water. After purchase, the animals were acclimatized for at least 1 week, and then the experiment began.
The mice were randomly divided by body weight into the following 5 groups: normal control group (Naïve group), model group (DSS group), ABX-464 (50 mg/kg, p.o., qd) group, ABX-464 (50 mg/kg, p.o., bid) group, and compound 1 disclosed herein (50 mg/kg, p.o., bid) group. After acclimatization, the mice were subjected to 2.5% DSS feeding from day 0. After 7 days of DSS feeding, the mice were fed normal water until day 10. The corresponding solvents and drugs were administered intragastrically for 10 consecutive days from day 0 to day 10, and the mice were observed daily for changes in body weight from day 0 to day 10. On day 10, the mice were weighed, and the colon length was measured.
The experimental data are expressed as mean±standard error (SEM). Statistical comparison was performed using Excel software t-test. The data of the model group and the data of the normal control group were analyzed and compared. #P<0.05 indicates a significant difference between the model group and the normal control group, ##P<0.01 indicates a highly significant difference between the model group and the normal control group, and ###P<0.001 indicates a very highly significant difference between the model group and the normal control group. *P<0.05 indicates a significant difference between the administration group and the model group, **P<0.01 indicates a highly significant difference between the administration group and the model group, and ***P<0.001 indicates a very highly significant difference between the administration group and the model group.

[3] = test system: miR-124; assay: Up-regulation of miR-124 in CD3/CD28 antibody-activated T cells (SYBR green quantitative PCR); format: cell-based; conditions: T-cell, 72 h; activated human T cells, 1 μM compound, 3 days, relative to DMSO, U6 internal reference
Procedure: The effect of the compound on miR-124 expression levels was detected in CD3/CD28 antibody-activated T cells. After the activated T cells were treated with the compound, the total cellular RNA was extracted, the cDNA obtained from reverse transcription was used as a template, and quantification was performed by an SYBR green fluorescence quantitative PCR method using a specific miR-124 primer.
Isolation of T cells: Purchased human peripheral blood mononuclear cells (PBMCs) were counted, centrifuged, and washed once with a separation buffer (PBS, pH 7.4, containing 0.5% BSA and 2 mM EDTA), and the supernatant was discarded. The components were added in an amount of 40 μL of a buffer and 10 μL of pan T Cell Biotin-Antibody Cocktail per 1×10^7 cells, and the pellet was resuspended. The resulting suspension was mixed and incubated in a refrigerator at 4° C. for 5 min. After the incubation was completed, the components were added in an amount of 30 μL of a buffer and 20 μL of Pan T Cell MicroBeads Cocktail per 1×10^7 cells, and the resulting suspension was mixed and incubated in a refrigerator at 4° C. for 10 min. The separation column (LS column) was rinsed with 3 mL of a cell separation buffer in advance, loaded with the above cell suspension, and then repeatedly washed 3 times with 1 mL of the cell separation buffer. The effluent cell fluid was collected in a 15 mL centrifuge tube, thus giving the enriched T cells. The cells were counted and added at a density of 1×10^6 cells/mL to an RPMI1640 medium (complete medium) containing 10% FBS and 40) U/mL IL-2, and the resulting mixture was kept on ice for later use.
Activation of T cells: The corresponding Dynabead Human T-Activator CD3/CD28 for T Cell Expansion and Activation were added to a 1.5 mL centrifuge tube in an amount of 25 μL of the activated magnetic beads per 1×10^6 cells, which should be shaken on a shaker for about 30 s before aspiration. In the centrifuge tube, at a volume ratio of greater than 1:1, the activated magnetic beads were washed 3 times with a medium, and all the washing liquid was removed after the last washing. A complete medium with a volume equal to the starting volume was added to resuspend the activated magnetic beads. The washed activated magnetic beads were added to the cell resuspension, and the resulting mixture was well mixed. The cells were added to a six-well plate at 3 mL/well and incubated in a cell incubator at 37° C. with 5% CO2 for 2 days.
Compound treatment: A 20 mM compound stock solution was diluted to 200 μM with DMSO, and then diluted 4-fold to 50 μM (50)×) with a complete medium. The resulting mixture was well mixed for later use. 4-fold diluted DMSO (25% DMSO) was added to negative control wells. T cells were activated for two days and pipetted uniformly. The 1.5 mL centrifuge tube was mounted on a magnetic rack, and the activated magnetic beads were removed. The cell suspension was collected, and the cells were counted and then centrifuged at 300×g for 10 min to discard the supernatant. The cells were then resuspended to 1.02×10^6 cells/mL, and 980 μL of the cell suspension and 20 μL of the 50× compound were added to each 24-well plate, with the final concentration of the compound being 1 μM. The cells were placed in a cell incubator at 37° C. with 5% CO2 for another 3 days.
RNA extraction: T cells were collected by centrifugation at 1500 rpm for 3 min, washed once with PBS, and centrifuged again to discard the supernatant. The total cellular RNA was extracted using a microRNA extraction kit according to the package insert. 700 μL of a Trizol cell lysis buffer was added to the cell pellet, and the resulting mixture was pipetted uniformly and left at room temperature for 5 min. 140 μL of chloroform was added, and the resulting mixture was well mixed with shaking and left to stand at room temperature for 3 min. The chloroform-cell lysis buffer mixture was centrifuged at 12000×g and 4° C. for 15 min. […]

[4] = po, intragastric administration, 2 mg/kg

Row | Vd/F [1, 4] [L/kg] | AUC [1, 4] [µg·h/mL] | CL/F [1, 4] [L/h/kg] | half-life [1, 4] [h] | Cmax [1, 4] [µg/mL] | MRT [1, 4] [h] | Vd ([1]; intravenous injection, 1 mg/kg) [L/kg] | AUC ([1]; intravenous injection, 1 mg/kg) [µg·h/mL] | clearance ([1]; intravenous injection, 1 mg/kg) [L/h/kg] | half-life ([1]; intravenous injection, 1 mg/kg) [h] | MRT ([1]; intravenous injection, 1 mg/kg) [h] | SMILES | efficacy on DSS-induced UC (conclusion in words) [2] | body weight decreasing rate ([2]; day 10, 50 mg/kg p.o. bid) [%] | colon length, % of that of the normal control group ([2]; day 10, 50 mg/kg p.o. bid) [%] | body weight decreasing rate ([2]; day 10, 50 mg/kg p.o. qd) [%] | colon length, % of that of the normal control group ([2]; day 10, 50 mg/kg p.o. qd) [%] | fold induction at 1 µM [3] | pharmacokinetic profile (conclusion in words) ([1]; compared to comparative compound A)
1 | 21.4 | 0.311 | 5.74 | 2.57 | 0.105 | 3.76 | 0.151 | 11.9 | 0.087 | 1.24 | 1.17 | O=C(O)[C@H]1O[C@@H](N(c2ccc(OC(F)(F)F)cc2)c2ccc3cccc(Cl)c3n2)[C@H](O)[C@@H](O)[C@@H]1O [A, reference compound] |  |  |  |  |  |  | 
2 |  |  |  |  |  |  |  |  |  |  |  | FC(F)(F)Oc1ccc(Nc2ccc3cccc(Cl)c3n2)cc1 [ABX-464] | certain prophylactic and therapeutic effects on the DSS-induced UC | 10.3 | 89.3 | 14.1 | 85.5 |  | 
3 |  |  |  |  |  |  |  |  |  |  |  | FC1(F)Oc2ccc(Nc3ccc4cccc(Cl)c4n3)cc2O1 [Compound 1, 8-Chloro-N-(2,2-difluorobenzo[d][1,3]dioxol-5-yl)quinolin-2-amine] | better efficacy in terms of body weight and colon length than the positive drug ABX-464 | 0.4 | 91.9 |  |  | 3.9 | 
4 | 6.18 | 1.22 | 1.72 | 2.47 | 0.242 | 4.32 | 0.178 | 23 | 0.0469 | 2.85 | 2.1 | O=C(O)[C@H]1O[C@@H](N(c2ccc3c(c2)OC(F)(F)O3)c2ccc3cccc(Cl)c3n2)[C@H](O)[C@@H](O)[C@@H]1O [Compound 2, (2S,3S,4S,5R,6R)-6-((8-Chloroquinolin-2-yl)(2,2-difluorobenzo[d][1,3]dioxol-5-yl)amino)-3,4,5-trihydroxytetrahydro-2H-pyran-2-carboxylic acid] |  |  |  |  |  | 1.2 | good absorption profile and significant pharmacokinetic superiority as compared to the comparative compound A
